Measurements: PMC4815073, “Targeting of tubulin polymerization and induction of mitotic blockage by Methyl 2-(5-fluoro-2-hydroxyphenyl)-1H-benzo[d]imidazole-5-carboxylate (MBIC) in human cervical cancer HeLa cell” (Journal of Experimental & Clinical Cancer Research : CR, 2016)

Columns and labels:
HepG-2 cells = assay: MTT cytotoxicity assay, HepG-2; format: cell-based, human; conditions: for IC50: MTT
Source text: (§1) The human cervical cancer cell-line, HeLa (CCL-2.2; ATCC, Manassas, VA), HCT-116 (CCL-247; ATCC, Manassas, VA), A549 (CCL-185; ATCC, Manassas, VA), HepG-2 (HB-8065; ATCC, Manassas, VA) and WRL-68 (CL-48; ATCC, Manassas, VA), were obtained from American Type Culture Collection (ATCC). HeLa, A549, HepG2 and WRL68 cells were maintained in Dulbecco’s Modified Eagle Medium (DMEM, Life Technologies, Inc, Rockville, MD). HCT-116 was obtained in McCoy’s 5a Medium Modified (Life Technologies, Inc, Rockville, MD) supplemented with 10 % fetal bovine serum and 1 % penicillin/streptomycin. Cells were incubated at 37 °C in a humidified cell culture 5 % CO2 incubator. Cells were passaged until reaching 70-80-% confluency for experimental purposes.
(§2) Cytotoxicity of MBIC was estimated by MTT assay. Briefly, 1 × 10^4 cells/well were seeded in a 96-well plate and incubated at 37 °C in 5 % CO2. After 24 h, cells were treated with different concentrations (0.02, 0.04, 0.1, 0.2, 0.4, 0.8, 1.5, 3, 6, 12, 25, 50 μM) of MBIC. 0.01 % DMSO was used as vehicle control. Cells were incubated for 24 and 48 h at 37 °C. Subsequently, 50 μl/well of 3-(4,5-dimethylthiazol-2-yl)-2,5-diphenyltetrazolium bromide (MTT, 2 mg/ml) was added and incubated for 2 h. After the incubation, the media was discarded and 100 μl DMSO was replaced into each well to dissolve the formazan crystal. The colorimetric assay was quantified at 570 nm wavelength using Chameleon V microplate reader (Hidex, Turku, Finland). The anti-proliferation activity of MBIC was expressed as an IC50 value. The percentage of cell viability was calculated as described previously.

HCT-116 cells = assay: MTT cytotoxicity assay, HCT-116; format: cell-based, human; conditions: for IC50: MTT
Source text: as §1, §2

A549 cells = assay: MTT cytotoxicity assay, A549; format: cell-based, human; conditions: for IC50: MTT
Source text: as §1, §2

HeLa cells [1] = assay: MTT cytotoxicity assay, HeLa; format: cell-based, human; conditions: for IC50: HeLa, MTT; for SI (Selectivity Index): IC50 WRL-68 / IC50 HeLa
Source text: as §1, §2

WRL-68 cells = assay: MTT cytotoxicity assay, WRL-68 normal liver cells; format: cell-based, human
Source text: as §1, §2

HeLa cells [2] = assay: Drug combination assay (MTT, Chou-Talalay, CampuSyn); format: cell-based; conditions: Homo sapiens, 24 h, drug alone, read-out: (Dm)IC50 Drug 1 (conventional drug alone)
Protocol: In order to discover the synergistic effects of MBIC with conventional drugs briefly, cells were seeded in 1 × 10^4 cells/well and were incubated at 37 °C overnight. […] Also, the MBIC, combined with each of the selected conventional drugs in a 1:1 ratio, were diluted in concentration from 50 μM to 0.1 μM. Cell viability assay (MTT assay) was performed 24 h post-treatment and absorbance were measured in a microplate reader to find out the IC50 for each conventional drug alone and in combination with MBIC on HeLa cells. For this analysis, we used the commercial software package CampuSyn (Biosoft, Cambridge, United Kingdom; Ref.9). […] Furthermore, the software produced an automated isobologram and fraction affected-combination index (Fa-CI) plot.

[3] = tested on: HeLa cells expressing EGFP-α-tubulin, EGFP-CENP-A and histone H2B-mCherry; assay: Live-cell imaging of mitotic spindle; format: cell-based, human; conditions: MBIC 10 μM, nocodazole 2 μM; imaged at 15 min intervals
Protocol: HeLa cells expressing EGFP-α-tubulin, EGFP-CENP-A and histone H2B-mCherry were grown in glass chambers (Thermo Scientific, USA). Thirty minutes before imaging, the medium was changed to pre-warmed Leibovitz’s L-15 medium (Life Technologies) supplemented with 20 % fetal bovine serum and 20 mM HEPES, pH 7.0. Recordings were made in a temperature-controlled incubator at 37 °C. Images were collected with an Olympus IX-71 inverted microscope (Olympus) controlled by DeltaVision softWoRx (Applied Precision) using a 20x 0.75 NA UPlan SApochromat objective lens (Olympus). Z-series of six sections in 3 μm increments were captured every 15 min. Image stacks were projected.

tubulin = molecular target: T1, tubulin (Sus scrofa, UniProt P02550+P02554); assay: Tubulin polymerization assay; format: biochemical; conditions: 10 μM drug, 3 mg/ml tubulin, 37 °C, 340 nm; untreated 12 mOD/min
T1 construct: purchased Cytoskeleton BK011P
Protocol: To investigate the effect of MBIC on tubulin polymerization, a fluorescence-based tubulin polymerization assay kit (Cytoskeleton-Cat. # BK011P) was used according to the manufacturer’s protocol. Briefly, 200 μl of pure tubulin protein was re-suspended in 420 μl of ice cold Tubulin Polymerization Buffer (TPB) to give a final concentration of 3 mg/ml tubulin, supplemented with 80 mM PIPES, 2 mM MgCl2, 0.5 mM EGTA, 1 mM GTP, 20 % (v/v) glycerol. 100 μl of tubulin reaction mixture were added to each well in a 96-well plate containing the selected concentration of MBIC (10 μM). […] Samples were mixed well and the tubulin assembly was monitored by an increase in fluorescence emission at 340 nm in kinetic mode for 120 min at 37 °C using a plate reader (Infinite® 200 PRO—Tecan plate reader, USA).

[4] = IC50 WRL-68 / IC50 HepG-2, 24 hours
[5] = IC50 WRL-68 / IC50 HepG-2, 48 hours
[6] = IC50 WRL-68 / IC50 HCT-116, 24 hours
[7] = IC50 WRL-68 / IC50 HCT-116, 48 hours
[8] = IC50 WRL-68 / IC50 A549, 24 hours
[9] = IC50 WRL-68 / IC50 A549, 48 hours
[10] = Homo sapiens, HepG2, HepG-2, 24 hours
[11] = Homo sapiens, HepG2, HepG-2, 48 hours
[12] = Homo sapiens, HCT-116, 24 hours
[13] = Homo sapiens, HCT-116, 48 hours

T1 sequence (P02550 whole entry): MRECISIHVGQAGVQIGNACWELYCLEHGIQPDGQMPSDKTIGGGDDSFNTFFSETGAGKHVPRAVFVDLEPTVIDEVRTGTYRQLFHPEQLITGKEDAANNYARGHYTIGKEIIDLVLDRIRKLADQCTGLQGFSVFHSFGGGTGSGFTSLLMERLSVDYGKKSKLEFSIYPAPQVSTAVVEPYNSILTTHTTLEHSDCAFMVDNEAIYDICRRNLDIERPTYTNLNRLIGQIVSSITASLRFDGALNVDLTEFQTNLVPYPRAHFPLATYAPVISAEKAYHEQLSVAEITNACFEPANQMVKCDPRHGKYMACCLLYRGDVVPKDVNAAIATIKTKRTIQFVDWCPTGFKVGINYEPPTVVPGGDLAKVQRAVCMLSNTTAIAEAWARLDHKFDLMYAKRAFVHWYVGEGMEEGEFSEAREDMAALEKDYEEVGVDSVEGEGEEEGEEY
T1 sequence (P02554 whole entry): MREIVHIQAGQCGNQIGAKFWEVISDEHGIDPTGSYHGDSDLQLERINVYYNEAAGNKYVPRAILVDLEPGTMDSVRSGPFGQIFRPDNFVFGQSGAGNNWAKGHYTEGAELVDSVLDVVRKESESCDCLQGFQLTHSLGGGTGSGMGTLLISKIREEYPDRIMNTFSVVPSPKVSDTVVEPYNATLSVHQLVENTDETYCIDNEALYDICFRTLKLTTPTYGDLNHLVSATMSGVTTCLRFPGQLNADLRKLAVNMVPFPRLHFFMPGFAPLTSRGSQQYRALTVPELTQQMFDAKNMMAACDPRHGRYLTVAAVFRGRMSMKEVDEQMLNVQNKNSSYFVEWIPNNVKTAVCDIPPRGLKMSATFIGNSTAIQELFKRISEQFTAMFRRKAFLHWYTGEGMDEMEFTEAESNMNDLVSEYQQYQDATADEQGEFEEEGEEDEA

Row | IC50 (HeLa cells [2]) | Structure (SMILES) | SI (Selectivity Index) (HepG-2 cells; [4]) | SI (Selectivity Index) (HepG-2 cells; [5]) | SI (Selectivity Index) (HCT-116 cells; [6]) | SI (Selectivity Index) (HCT-116 cells; [7]) | SI (Selectivity Index) (A549 cells; [8]) | SI (Selectivity Index) (A549 cells; [9]) | SI (Selectivity Index) (HeLa cells [1]; 24 hours) | SI (Selectivity Index) (HeLa cells [1]; 48 hours) | IC50 (HepG-2 cells; [10]) | IC50 (HepG-2 cells; [11]) | IC50 (HCT-116 cells; [12]) | IC50 (HCT-116 cells; [13]) | IC50 (A549 cells; Homo sapiens, A549, 24 hours) | IC50 (A549 cells; Homo sapiens, A549, 48 hours) | IC50 (HeLa cells [1]; Homo sapiens, 24 hours) | IC50 (HeLa cells [1]; Homo sapiens, 48 hours) | IC50 (WRL-68 cells; Homo sapiens, WRL68, 24 hours) | IC50 (WRL-68 cells; Homo sapiens, WRL68, 48 hours) | Tubulin polymerization maximal velocity (Vmax) (tubulin) | other results
1 |  | N.N.[Cl][Pt][Cl] [Cisplatin] | 1.80 | 1.78 | 2.57 | 2.56 | 0.54 | 0.54 | 1.23 | 1.17 |  |  |  |  |  |  |  |  |  |  |  | IC50 (HepG-2 cells; HepG-2, 24 hours): 10.3 ± 0.5 µM; IC50 (HepG-2 cells; HepG-2, 48 hours): 5.93 ± 0.2 µM; IC50 (HCT-116 cells; HCT-116, 24 hours): 7.22 ± 0.5 µM; IC50 (HCT-116 cells; HCT-116, 48 hours): 4.12 ± 0.6 µM; IC50 (A549 cells; A549, 24 hours): 34 ± 0.9 µM; IC50 (A549 cells; A549, 48 hours): 19.5 ± 1.4 µM; IC50 (HeLa cells [1]; 24 hours): 15.07 ± 0.03 µM; IC50 (HeLa cells [1]; 48 hours): 9.02 ± 0.02 µM; IC50 (WRL-68 cells; 24 hours): 18.6 ± 1.4 µM; IC50 (WRL-68 cells; 48 hours): 10.6 ± 0.7 µM
2 | 0.46 ± 0.7 µM | COc1cccc2c1C(=O)c1c(O)c3c(c(O)c1C2=O)C[C@@](O)(C(=O)CO)C[C@@H]3O[C@H]1C[C@H](N)[C@H](O)[C@H](C)O1 [Doxorubicin] | 0.44 | 0.42 | 3.91 | 3.57 | 10.17 | 18.66 | 7.73 | 5.79 | 8.04 ± 0.8 µM | 3.94 ± 0.07 µM | 0.91 ± 0.2 µM | 0.47 ± 0.3 µM | 0.35 ± 0.07 µM | 0.09 ± 0.01 µM | 0.46 ± 0.04 µM | 0.29 ± 0.04 µM | 3.56 ± 0.9 µM | 1.68 ± 0.09 µM |  | 
3 | 1.02 ± 0.6 µM | CC(=O)O[C@H]1C(=O)[C@@]2(C)[C@H]([C@H](OC(=O)c3ccccc3)[C@]3(O)C[C@H](OC(=O)[C@H](O)[C@@H](NC(=O)c4ccccc4)c4ccccc4)C(C)=C1C3(C)C)[C@]1(OC(C)=O)CO[C@@H]1C[C@@H]2O [Paclitaxel] | 2.38 | 3.31 | 2.17 | 3.12 | 2.37 | 2.77 | 6.57 | 5.98 | 2.81 ± 0.72 µM | 1.03 ± 0.07 µM | 3.09 ± 0.5 µM | 1.09 ± 0.4 µM | 2.83 ± 0.11 µM | 1.23 ± 0.09 µM | 1.02 ± 0.01 µM | 0.57 ± 0.03 µM | 6.71 ± 0.2 µM | 3.41 ± 0.8 µM | 33 mOD/min | 

Row | Structure (SMILES) | IC50 (HeLa cells [2]) | SI (Selectivity Index) (HepG-2 cells; [4]) | SI (Selectivity Index) (HepG-2 cells; [5]) | SI (Selectivity Index) (HCT-116 cells; [6]) | SI (Selectivity Index) (HCT-116 cells; [7]) | SI (Selectivity Index) (A549 cells; [8]) | SI (Selectivity Index) (A549 cells; [9]) | SI (Selectivity Index) (HeLa cells [1]; 24 hours) | SI (Selectivity Index) (HeLa cells [1]; 48 hours) | IC50 (HepG-2 cells; [10]) | IC50 (HepG-2 cells; [11]) | IC50 (HCT-116 cells; [12]) | IC50 (HCT-116 cells; [13]) | IC50 (A549 cells; Homo sapiens, A549, 24 hours) | IC50 (A549 cells; Homo sapiens, A549, 48 hours) | IC50 (HeLa cells [1]; Homo sapiens, 24 hours) | IC50 (HeLa cells [1]; Homo sapiens, 48 hours) | IC50 (WRL-68 cells; Homo sapiens, WRL68, 24 hours) | IC50 (WRL-68 cells; Homo sapiens, WRL68, 48 hours) | Tubulin polymerization maximal velocity (Vmax) (tubulin) | other results
4 | COC(=O)Nc1nc2ccc(C(=O)c3cccs3)cc2[nH]1 [Nocodazole] | 3.08 ± 0.5 µM | 1.14 | 1.48 | 3.20 | 4.17 | 1.00 | 1.48 | 3.97 | 3.40 | 10.7 ± 0.5 µM | 5.08 ± 0.3 µM | 3.81 ± 0.6 µM | 1.81 ± 0.3 µM | 12.2 ± 0.2 µM | 5.09 ± 0.5 µM | 3.08 ± 0.02 µM | 2.22 ± 0.04 µM | 12.2 ± 0.9 µM | 7.56 ± 0.3 µM | 3 mOD/min | mitotic spindle formation in live-cell imaging [3]: did not form the spindle
